In experiment [1] the target is T1, His-Tagged hOGA (human O-GlcNAcase) (Homo sapiens, UniProt O60502).
T1 sequence (O60502 1-916): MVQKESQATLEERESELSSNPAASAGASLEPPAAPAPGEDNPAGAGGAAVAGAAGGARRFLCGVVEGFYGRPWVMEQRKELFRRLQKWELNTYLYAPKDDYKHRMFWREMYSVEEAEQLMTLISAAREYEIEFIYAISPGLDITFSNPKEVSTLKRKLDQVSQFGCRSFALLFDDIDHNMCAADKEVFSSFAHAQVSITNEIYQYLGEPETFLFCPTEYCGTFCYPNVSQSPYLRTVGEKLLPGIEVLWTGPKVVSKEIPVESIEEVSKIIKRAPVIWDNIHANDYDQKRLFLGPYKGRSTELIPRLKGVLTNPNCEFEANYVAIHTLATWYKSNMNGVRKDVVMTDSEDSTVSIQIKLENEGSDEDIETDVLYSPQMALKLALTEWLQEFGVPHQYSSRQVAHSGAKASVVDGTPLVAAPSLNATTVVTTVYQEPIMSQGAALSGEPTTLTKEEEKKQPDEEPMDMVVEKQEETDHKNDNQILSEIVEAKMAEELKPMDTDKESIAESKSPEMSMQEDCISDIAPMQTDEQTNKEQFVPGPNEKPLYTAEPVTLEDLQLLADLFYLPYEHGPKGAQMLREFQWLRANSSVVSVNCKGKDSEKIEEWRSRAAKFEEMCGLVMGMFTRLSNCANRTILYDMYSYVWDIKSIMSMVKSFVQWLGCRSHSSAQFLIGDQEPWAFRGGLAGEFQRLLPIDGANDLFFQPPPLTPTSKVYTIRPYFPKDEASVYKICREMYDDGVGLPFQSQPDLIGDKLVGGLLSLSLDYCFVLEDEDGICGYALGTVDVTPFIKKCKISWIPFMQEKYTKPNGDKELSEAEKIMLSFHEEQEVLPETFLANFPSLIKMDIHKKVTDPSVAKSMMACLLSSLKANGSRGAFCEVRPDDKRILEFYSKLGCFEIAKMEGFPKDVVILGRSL
The experiment in a line: biochemical.

The target in experiment [2] is T2, O-GlcNAcase (UniProt Q8VIJ5).
T2 sequence (Q8VIJ5 1-916): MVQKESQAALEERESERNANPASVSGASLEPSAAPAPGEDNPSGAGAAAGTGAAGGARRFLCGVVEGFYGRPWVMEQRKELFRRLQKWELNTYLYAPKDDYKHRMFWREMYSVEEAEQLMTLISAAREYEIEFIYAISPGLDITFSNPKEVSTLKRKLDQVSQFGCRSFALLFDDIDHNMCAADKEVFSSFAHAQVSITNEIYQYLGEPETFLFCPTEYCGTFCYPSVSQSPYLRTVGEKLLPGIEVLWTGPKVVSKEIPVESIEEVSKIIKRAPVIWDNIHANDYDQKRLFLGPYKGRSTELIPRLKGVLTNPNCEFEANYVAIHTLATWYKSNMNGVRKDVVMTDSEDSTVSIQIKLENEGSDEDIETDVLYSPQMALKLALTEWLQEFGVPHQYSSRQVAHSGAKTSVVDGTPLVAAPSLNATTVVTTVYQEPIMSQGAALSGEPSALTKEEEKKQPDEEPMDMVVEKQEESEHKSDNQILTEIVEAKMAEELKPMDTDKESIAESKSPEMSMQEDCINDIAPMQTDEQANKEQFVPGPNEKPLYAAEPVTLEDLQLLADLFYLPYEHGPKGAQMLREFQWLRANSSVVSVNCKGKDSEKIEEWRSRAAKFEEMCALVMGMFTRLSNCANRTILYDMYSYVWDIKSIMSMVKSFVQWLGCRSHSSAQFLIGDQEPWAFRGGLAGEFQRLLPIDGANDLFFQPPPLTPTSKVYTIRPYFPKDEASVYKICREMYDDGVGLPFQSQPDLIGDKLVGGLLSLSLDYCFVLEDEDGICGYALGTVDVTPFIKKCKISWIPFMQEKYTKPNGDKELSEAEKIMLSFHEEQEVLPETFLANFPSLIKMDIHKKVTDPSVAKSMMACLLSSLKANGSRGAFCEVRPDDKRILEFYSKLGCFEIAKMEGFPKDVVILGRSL
The experiment is classed as cell-based. The note with it: cells expressing endogenous O-GlcNAcase (such as rat B35, rat PC-12, human SH-SY5Y), approximately 16 hours treatment; read-out: OGA cellular inhibition (EC50). An excerpt:
Assay for the Determination of Cellular Activity for Compounds that Inhibit O-GlcNAcase Activity
Inhibition of O-GlcNAcase, which removes O-GlcNAc from cellular proteins, results in an increase in the level of O-GlcNAcylated proteins in cells. An increase in the O-GlcNAcylation of cellular proteins can be measured by an antibody, such as CTD110.6, that binds O-GlcNAcylated proteins. The amount of O-GlcNAcylated protein can be determined by the enzyme linked immunoabsorbant assay (ELISA) technique.
Cell lines, such as rat B35, rat PC-12 and human SH-SY5Y cells, expressing endogenous levels of O-GlcNAcase, could be utilized. Cells were plated in 96-well plates at a density of approximately 10,000 cells/well. Compounds to be tested were dissolved in DMSO as 10 mM stock solution, and then diluted first with DMSO and then culture media using the Bravo workstation. Cells were treated with diluted compounds for approximately 16 hours. […] To prepare a cell lysate, the media from compound treated cells were removed, and the cells were washed once with Dulbecco's phosphate buffered saline (DPBS) and then lysed for 30 minutes in 100 μl/well of ice cold RIPA buffer containing a protease inhibitor cocktail.
The ELISA portion of the assay was performed in EIA/RIA plates that were coated overnight at 4 C with 80 μl/well of cell lysate. The following day the wells were washed 6 times with 200 μl of wash buffer (0.05% Tween20 in DPBS). The wells were blocked with 200 μl blocking buffer (1% BSA, 0.05% Tween20 in DPBS) for 1 h at room temperature. Each well was then washed 6 times with 200 μl of wash buffer. The anti-O-GlcNAc antibody CTD110.6 (Covance, Princeton, N.J.) was added at 100 μl/well at a concentration of 10 μg/ml. The plates were incubated for 1 h at room temperature. The wells were then washed 6 times with 200 μl/well of wash buffer. To detect the amount of CTD110.6 bound to the cell lysate, alkaline phosphatase conjugated goat anti-mouse IgM (diluted 1:500 in blocking buffer) was added at 100 μl/well and incubated for 45 min at room temperature. Each well was then washed 6 times with 200 μl/well of wash buffer. PNPP tablets dissolved in diethanolamine substrate buffer and 100 μl/well were added as detection reagent.
The amount of O-GlcNAcylated protein, as detected by the ELISA assay, was plotted for each concentration of test compound using standard curve fitting algorithms for sigmoidal dose response curves. The values for a four parameter logistic curve fit of the data were determined, with the inflection point of the curve being the potency value for the test compound.

Setting [3] is: read-out: OGA enzyme inhibition (IC50).

Read-outs that look alike come from different tables or passages of the source. A value given as a limit tells only on which side of the number the result lay.

Turning to `CCNC1=N[C@@H]2[C@@H](O)[C@H](O)[C@@H](Cn3cc(CCc4ccccc4)nn3)O[C@@H]2S1` [compound no. 6, (3aR,5R,6S,7R,7aR)-2-(ethylamino)-5-{[4-(2-phenylethyl)-1H-1,2,3-triazol-1-yl]methyl}-5,6,7,7a-tetrahydro-3aH-pyrano[3,2-d][1,3]thiazole-6,7-diol], the IC50 in experiment [1] was less than 0.1 µM. Besides, in experiment [2], the EC50 is 0.5 to 1 µM.

Consider `CCNC1=N[C@@H]2[C@@H](O)[C@H](O)[C@@H](Cn3cc(-c4ccccn4)nn3)O[C@@H]2S1` [compound no. 7, (3aR,5R,6S,7R,7aR)-2-(ethylamino)-5-[(4-pyridin-2-yl-1H-1,2,3-triazol-1-yl)methyl]-5,6,7,7a-tetrahydro-3aH-pyrano[3,2-d][1,3]thiazole-6,7-diol], for which the IC50 in experiment [1] (setting [3]) was 0.1 to 0.5 µM. Further, the EC50 in experiment [2] is more than 1 µM.

On to `CCNC1=N[C@@H]2[C@@H](O)[C@H](O)[C@@H](Cn3cc(C(=O)OC)nn3)O[C@@H]2S1` [compound no. 10, Methyl 1-{[(3aR,5R,6S,7R,7aR)-2-(ethylamino)-6,7-dihydroxy-5,6,7,7a-tetrahydro-3aH-pyrano[3,2-d][1,3]thiazol-5-yl]methyl}-1H-1,2,3-triazole-4-carboxylate], for which the IC50 in experiment [1] (setting [3]) is 0.1 to 0.5 µM. Moreover, the EC50 in experiment [2] fell in the range of 0.5 to 1 µM.

Compound `CCN(C(=O)OC(C)(C)C)C1=N[C@@H]2[C@@H](O)[C@H](O)[C@@H](CO)O[C@@H]2S1` [compound no. 12, Tert-butyl [(3aR,5R,6S,7R,7aR)-6,7-dihydroxy-5-(hydroxymethyl)-5,6,7,7a-tetrahydro-3aH-pyrano[3,2-d][1,3]thiazol-2-yl]ethylcarbamate] showed an IC50 in experiment [1] of less than 0.1 µM. Further, in experiment [2], the EC50 was less than 0.1 µM.

In turn, `CCNC1=N[C@@H]2[C@@H](O)[C@H](O)[C@@H](Cn3cc(Cc4ccccc4)nn3)O[C@@H]2S1` [compound no. 14, (3aR,5R,6S,7R,7aR)-5-[(4-benzyl-1H-1,2,3-triazol-1-yl)methyl]-2-(ethylamino)-5,6,7,7a-tetrahydro-3aH-pyrano[3,2-d][1,3]thiazole-6,7-diol] yielded an IC50 in experiment [1] of less than 0.1 µM. The concentration for a half-maximal effect (EC50) in experiment [2] is 0.1 to 0.5 µM.

For `C/C=C/C(=O)NC1=N[C@@H]2[C@@H](O)[C@H](O)[C@@H](CO)O[C@@H]2S1` [compound no. 19, (2E)-N-[(3aR,5R,6S,7R,7aR)-6,7-dihydroxy-5-(hydroxymethyl)-5,6,7,7a-tetrahydro-3aH-pyrano[3,2-d][1,3]thiazol-2-yl]but-2-enamide], the IC50 in experiment [1] (setting [3]) is 0.5 to 1 µM. The EC50 in experiment [2] is more than 1 µM.

In the case of `CCNC1=N[C@@H]2[C@@H](O)[C@H](O)[C@@H](Cn3cc(CCCc4ccccc4)nn3)O[C@@H]2S1` [compound no. 30, (3aR,5R,6S,7R,7aR)-2-(ethylamino)-5-{[4-(3-phenylpropyl)-1H-1,2,3-triazol-1-yl]methyl}-5,6,7,7a-tetrahydro-3aH-pyrano[3,2-d][1,3]thiazole-6,7-diol], the IC50 in experiment [1] is 0.1 to 0.5 µM. The EC50 in experiment [2] is more than 1 µM.

For the compound `CCNC1=N[C@@H]2[C@@H](O)[C@H](O)[C@@H](CCl)O[C@@H]2S1` [compound no. 32, (3aR,5S,6S,7R,7aR)-5-(chloromethyl)-2-(ethylamino)-5,6,7,7a-tetrahydro-3aH-pyrano[3,2-d][1,3]thiazole-6,7-diol], in experiment [1] (setting [3]), the IC50 was less than 0.1 µM. For the same compound, in experiment [2], the EC50 was less than 0.1 µM.

With `CCNC1=N[C@@H]2[C@@H](OS(C)(=O)=O)[C@H](O)[C@@H](CO)O[C@@H]2S1` [compound no. 46, (3aR,5R,6R,7R,7aR)-2-(ethylamino)-6-hydroxy-5-(hydroxymethyl)-5,6,7,7a-tetrahydro-3aH-pyrano[3,2-d][1,3]thiazol-7-yl methanesulfonate], the IC50 in experiment [1] (setting [3]) fell in the range of 0.1 to 0.5 µM. Also, the EC50 in experiment [2] was 0.1 to 0.5 µM.

With `CCNC1=N[C@@H]2[C@@H](O)[C@H](O)[C@@H](CN(C)C)O[C@@H]2S1` [compound no. 51, (3aR,5R,6S,7R,7aR)-5-[(dimethylamino)methyl]-2-(ethylamino)-5,6,7,7a-tetrahydro-3aH-pyrano[3,2-d][1,3]thiazole-6,7-diol], the IC50 in experiment [1] (setting [3]) was 0.1 to 0.5 µM. Also, the EC50 in experiment [2] lay in the range of 0.1 to 0.5 µM.

As for `CCNC1=N[C@@H]2[C@@H](O)[C@H](O)[C@@H](Cn3cc(Cn4nnc5ccccc54)nn3)O[C@@H]2S1` [compound no. 57, (3aR,5R,6S,7R,7aR)-5-{[4-(1H-1,2,3-benzotriazol-1-ylmethyl)-1H-1,2,3-triazol-1-yl]methyl}-2-(ethylamino)-5,6,7,7a-tetrahydro-3aH-pyrano[3,2-d][1,3]thiazole-6,7-diol], the IC50 in experiment [1] is less than 0.1 µM. For the same compound, the EC50 in experiment [2] is more than 1 µM.

For `CCNC1=N[C@@H]2[C@@H](O)[C@H](O)[C@@H](Cn3cc(COc4ccccc4)nn3)O[C@@H]2S1` [compound no. 58, (3aR,5R,6S,7R,7aR)-2-(ethylamino)-5-{[4-(phenoxymethyl)-1H-1,2,3-triazol-1-yl]methyl}-5,6,7,7a-tetrahydro-3aH-pyrano[3,2-d][1,3]thiazole-6,7-diol], the IC50 in experiment [1] (setting [3]) was less than 0.1 µM. Also, in experiment [2], the EC50 fell in the range of 0.5 to 1 µM.

Take `CCNC1=N[C@@H]2[C@@H](O)[C@H](O)[C@@H](Cn3cc(C(C)(O)c4ccccc4)nn3)O[C@@H]2S1` (some centres unmarked) [compound no. 67, 2-Ethylamino-5-[4-(1-hydroxy-1-phenyl-ethyl)-[1,2,3]triazol-1-ylmethyl]-5,6,7,7a-tetrahydro-3aH-pyrano[3,2-d]thiazole-6,7-diol]: the IC50 in experiment [1] is less than 0.1 µM. Besides, in experiment [2], the EC50 is less than 0.1 µM.

A word on the IC50: it is the concentration that gives 50% inhibition. For orientation: EC50 means the concentration that produces a half-maximal response.

The values above are taken from US8884023B2, “Pyrano [3,2-D][1,3]thiazole as glycosidase inhibitors” (priority 2011, dated 2014).
